Results as given in ChEMBL document CHEMBL1155368, “Derivatives of aryl amines containing the cytotoxic 1,4-dioxo-2-butenyl pharmacophore” (Bioorg Med Chem Lett, 2010).

What was measured:
[1] = Cytotoxicity against human Molt4/C8 cells; assay type: functional, cell-based; conditions: MOLT-4
[2] = system: L1210; test: Cytotoxicity against mouse L1210 cells; assay type: functional, cell-based
[3] = system: CCRF-CEM; test: Cytotoxicity against human CEM cells; assay type: functional, cell-based
[4] = system: Mus musculus; test: Toxicity in mouse assessed as mortality at 300 mg/kg, ip after 4 hrs; assay type: organism-based; parameters: dose 300 mg/kg, route intraperitoneal; conditions: in vivo
[5] = system: Mus musculus; test: Toxicity in mouse assessed as mortality at 30 to 300 mg/kg, ip after 0.5 to 4 hrs; assay type: organism-based; parameters: dose 30-300 mg/kg, route intraperitoneal; conditions: in vivo
[6] = system: Mus musculus; test: Toxicity in mouse assessed as mortality at 30 mg/kg, ip after 4 hrs; assay type: organism-based; parameters: dose 30 mg/kg, route intraperitoneal; conditions: in vivo
[7] = system: Mus musculus; test: Toxicity in mouse assessed as mortality at 100 mg/kg, ip after 4 hrs; assay type: organism-based; parameters: dose 100 mg/kg, route intraperitoneal; conditions: in vivo
[8] = target: T1, Glycylpeptide N-tetradecanoyltransferase 1 (Homo sapiens, UniProt P30419); test: Inhibition of human NMT expressed in Escherichia coli DH5alpha cells
T1 sequence (P30419 whole entry): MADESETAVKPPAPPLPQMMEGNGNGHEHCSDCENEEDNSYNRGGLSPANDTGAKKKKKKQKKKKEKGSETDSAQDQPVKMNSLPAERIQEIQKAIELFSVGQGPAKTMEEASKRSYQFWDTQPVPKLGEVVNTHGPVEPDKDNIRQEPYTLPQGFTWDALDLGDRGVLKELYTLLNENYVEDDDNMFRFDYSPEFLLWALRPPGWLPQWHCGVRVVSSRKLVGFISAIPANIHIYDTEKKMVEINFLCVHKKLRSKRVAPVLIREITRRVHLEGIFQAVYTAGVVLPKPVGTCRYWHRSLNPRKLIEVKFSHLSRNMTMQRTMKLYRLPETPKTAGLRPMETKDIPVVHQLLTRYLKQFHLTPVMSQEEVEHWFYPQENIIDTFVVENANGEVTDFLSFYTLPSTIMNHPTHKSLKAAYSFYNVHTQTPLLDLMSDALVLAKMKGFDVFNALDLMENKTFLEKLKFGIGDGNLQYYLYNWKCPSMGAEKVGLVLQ

SMILES	IC50 [1] [µM]	IC50 [2] [µM]	IC50 [3] [µM]	Activity [4]	Activity [5]	Activity [6]	Activity [7]	IC50 [8] [µM]
O=C1C=C/C(=N\c2ccc(Cl)cc2)O1	30	59	182					
Cc1ccc(/N=C2\C=CC(=O)O2)cc1	301	271	357					
COC(=O)/C=C\C(=O)Nc1ccc([N+](=O)[O-])cc1	210	208	190	Toxic				
COC(=O)/C=C/C(=O)Nc1ccc(OC)cc1	10	18	37		Non-toxic			
O=C1C=CC(=O)N1c1ccccc1	207	164	217	Toxic		Toxic	Toxic	
COC(=O)/C=C/C(=O)Nc1c(C)cccc1C	26	34	31		Non-toxic			
COc1ccc(N2C(=O)CCC2=O)cc1	281	225	295	Toxic			Toxic	
O=C(O)/C=C/C(=O)Nc1ccc(Cl)cc1	> 500	> 500	> 500		Non-toxic			
O=C1CCC(=O)N1c1ccccc1	> 500	> 500	> 500		Non-toxic			
CC(=O)c1ccc(N2C(=O)CCC2=O)cc1	93	31	215	Toxic			Toxic	
Cc1ccc(NC(=O)/C=C/C(=O)O)cc1C	> 500	466	> 500		Non-toxic			
O=C(O)/C=C/C(=O)Nc1ccc(Cl)c(Cl)c1	214	314	209		Non-toxic			
COC(=O)/C=C/C(=O)Nc1ccc(Cl)c(Cl)c1	2.4	0.37	4.8		Non-toxic			
N[C@@H](Cc1ccc(N(CCCl)CCCl)cc1)C(=O)O [MELPHALAN]	3.2	2.1	2.5					
O=C(O)CCC(=O)Nc1ccccc1	> 500	> 500	> 500					
COC(=O)/C=C\C(=O)Nc1ccc(C)cc1	37	47	36					> 10000
COC(=O)/C=C\C(=O)Nc1ccccc1	> 500	> 500	> 500					
Cc1ccc(N2C(=O)CCC2=O)cc1	43	7.8	42	Toxic			Toxic	
Cc1ccc(NC(=O)/C=C/C(=O)O)cc1	> 500	> 500	> 500		Non-toxic			
O=C(O)/C=C/C(=O)Nc1ccccc1	> 500	> 500	> 500		Non-toxic			
COC(=O)/C=C/C(=O)Nc1ccc(C)c(C)c1	4.6	2.2	7.6		Non-toxic			2330
COC(=O)/C=C/C(=O)Nc1ccc(Cl)cc1	8.2	7.5	9.6		Non-toxic			

SMILES	IC50 [1] [µM]	IC50 [2] [µM]	IC50 [3] [µM]	Activity [4]	Activity [5]	Activity [6]	Activity [7]	IC50 [8] [µM]
Cc1cccc(C)c1NC(=O)/C=C/C(=O)O	> 500	> 500	> 500		Non-toxic			
O=C1CCC(=O)N1c1ccc(Cl)cc1	218	194	231	Toxic			Toxic	
COC(=O)/C=C/C(=O)Nc1ccccc1	42	40	40		Non-toxic			
COC(=O)/C=C/C(=O)Nc1ccc(C)cc1	21	9.3	15				Toxic	
COC(=O)/C=C\C(=O)Nc1ccc(Cl)c(Cl)c1	41	39	55	Toxic				
COC(=O)/C=C\C(=O)Nc1ccc(C)c(C)c1	188	202	228					
O=C1C=C/C(=N\c2ccccc2)O1	> 500	> 500	> 500					
COC(=O)CCC(=O)Nc1ccccc1	> 500	> 500	> 500					
COC(=O)/C=C/C(=O)Nc1ccc(C(C)=O)cc1	35	17	32					
COC(=O)/C=C/C(=O)Nc1ccc([N+](=O)[O-])cc1	7.3	6.2	11		Non-toxic			
COC(=O)/C=C\C(=O)Nc1c(C)cccc1C	192	184	183					
COC(=O)/C=C\C(=O)Nc1ccc(C(C)=O)cc1	50	184	44	Toxic				
O=C1C=C/C(=N\c2ccc([N+](=O)[O-])cc2)O1	60	69	161	Toxic				
O=C(O)/C=C/C(=O)Nc1ccc([N+](=O)[O-])cc1	236	> 500	> 500		Non-toxic			
COC(=O)/C=C\C(=O)Nc1ccc(Cl)cc1	41	78	95		Non-toxic			
O=C1C=C/C(=N\c2ccc(Cl)c(Cl)c2)O1	58	47	54	Toxic				
O=C1CCC(=O)N1c1ccc([N+](=O)[O-])cc1	210	41	202	Toxic			Toxic	
Cc1ccc(/N=C2\C=CC(=O)O2)cc1C	161	69	195					
CC(=O)c1ccc(/N=C2\C=CC(=O)O2)cc1	214	219	205					
COc1ccc(NC(=O)/C=C/C(=O)O)cc1	> 500	> 500	> 500		Non-toxic			
COc1ccc(/N=C2\C=CC(=O)O2)cc1	> 500	> 500	> 500					
CC(=O)c1ccc(NC(=O)/C=C/C(=O)O)cc1	> 500	> 500	> 500		Non-toxic			
